Measurements from the NIST ThermoML archive (doi:10.1021/je0501991).

How the values were obtained:
[1] = xn = mol fraction of the nth substance listed; details: 308.15 K, 101.33 kPa, Liquid
[2] = molar heat capacity at constant pressure; xn = mol fraction of the nth substance listed; details: 101.33 kPa, Liquid
[3] = refractive index (Na D-line) (dimensionless); xn = mol fraction of the nth substance listed; details: 308.15 K, 101.33 kPa, Liquid, Standard Abbe refractometry
[4] = excess molar enthalpy (molar enthalpy of mixing); xn = mol fraction of the nth substance listed; details: 308.15 K, 101.33 kPa, Liquid

OCCc1ccccc1 [2-phenylethanol] + C[S+](C)[O-]
Details	excess molar enthalpy [kcal/mol]	mass density [kg/m3]	refractive index	viscosity [mPa·s]
[1], x2 = 0.0435	–	1011.25	–	7.049
[1], x2 = 0.1521	–	1017.45	–	6.133
[1], x2 = 0.2758	–	1024.6	–	5.162
[1], x2 = 0.3564	–	1029.49	–	4.611
[1], x2 = 0.4566	–	1035.91	–	3.976
[1], x2 = 0.5477	–	1042.18	–	3.446
[1], x2 = 0.6247	–	1047.95	–	3.052
[1], x2 = 0.7102	–	1054.95	–	2.652
[1], x2 = 0.7707	–	1060.33	–	2.398
[1], x2 = 0.8346	–	1066.5	–	2.157
[1], x2 = 0.8653	–	1069.64	–	2.056
[1], x2 = 0.9433	–	1078.31	–	1.806
[3], x2 = 0.0435	–	–	1.5257	–
[3], x2 = 0.1521	–	–	1.5224	–
[3], x2 = 0.2758	–	–	1.5179	–
[3], x2 = 0.3564	–	–	1.5145	–
[3], x2 = 0.4566	–	–	1.5099	–
[3], x2 = 0.5477	–	–	1.5052	–
[3], x2 = 0.6247	–	–	1.5008	–
[3], x2 = 0.7102	–	–	1.4956	–
[3], x2 = 0.7707	–	–	1.4916	–
[3], x2 = 0.8346	–	–	1.487	–
[3], x2 = 0.8653	–	–	1.4846	–
[3], x2 = 0.9433	–	–	1.4783	–
[4], x2 = 0.0655	-0.093	–	–	–
[4], x2 = 0.123	-0.15	–	–	–
[4], x2 = 0.1738	-0.185	–	–	–
[4], x2 = 0.219	-0.207	–	–	–
[4], x2 = 0.2961	-0.226	–	–	–
[4], x2 = 0.3593	-0.233	–	–	–
[4], x2 = 0.4569	-0.222	–	–	–
[4], x2 = 0.5286	-0.207	–	–	–
[4], x2 = 0.6273	-0.175	–	–	–
[4], x2 = 0.7163	-0.137	–	–	–
[4], x2 = 0.7709	-0.112	–	–	–
[4], x2 = 0.8347	-0.0825	–	–	–
[4], x2 = 0.8707	-0.0643	–	–	–
[4], x2 = 0.9099	-0.0459	–	–	–
[4], x2 = 0.9309	-0.0351	–	–	–
[4], x2 = 0.9528	-0.0234	–	–	–
[4], x2 = 0.9759	-0.012	–	–	–

molar heat capacity at constant pressure [J/K/mol], [2]
Details	298.15 K	308.15 K	318.15 K
x2 = 0	239.6	245.3	251.6
x2 = 0.08581	235	240.8	246.5
x2 = 0.1638	218.3	223.2	228.7
x2 = 0.2999	190.7	194.2	198.1
x2 = 0.4205	185	188.4	191.3
x2 = 0.519	185.5	188.2	190.7
x2 = 0.6293	169.3	171.3	173.6
x2 = 0.6713	171	172.8	174.9
x2 = 0.7066	162.6	164.6	166.5
x2 = 0.7919	162.7	164.8	166.8
x2 = 0.8596	156.2	157.3	159.1
x2 = 0.937	157.8	159.6	160
x2 = 0.9688	143.5	144.8	145.9
